Measurements as given in patent US20110223671A1, “Methods for using positively and negatively selectable genes in a filamentous fungal cell” (priority 2008, published 2011).

Tests used:
Format in all cases: cell-based
[1] = test system: Fusarium venenatum WTY1449-03-03 (bar+, tk+); experiment: Growth of spores of bar+, tk+ strain on FdU- and uridine-supplemented VNO3RLMT plates; conditions: 6 days, 28° C.
Description: To this end the bar+, tk+ strain Fusarium venenatum WTY1449-03-03 was revived on VNO3RLMT-BASTA™ plates (as described in Example 1) and induced to produce spores as described in Example 5. After harvesting and washing, the spores were plated (50,000 spores per 14 cm diameter plate) to FdU-supplemented VNO3RLMT plates containing 50 μM FdU and varying concentrations of uridine (0.1-1 mM). These plates were incubated at 28° C. in ChexAll Instant Seal Sterilization Pouches for 6 days, after which they were evaluated for growth.

[2] = test system: Fusarium venenatum WTY1449-9-1 (tk-); experiment: Reconstruction experiment, growth on FdU-supplemented minimal media, tk- strain; conditions: 50 μM FdU
Description: (§1) To determine whether very low uridine concentrations could confer resistance to FdU in a tk+ strain, a reconstruction experiment was performed. The tk+ strain Fusarium venenatum WTY1449-3-3 and the tk− strain Fusarium venenatum WTY1449-9-1 were used. Spores of each strain were induced and plated at 50 spores per plate (Fusarium venenatum WTY1449-9-1) or 50,000 spores per 14 cm diameter plate (Fusarium venenatum WTY1449-3-3). In addition, a combination of WTY1449-3-3 and WTY1449-9-1 spores, […], were mixed and plated. All plates contained VNO3RLMT supplemented with 50 μM FdU. The uridine concentration in the plates was 1, 0.5, 0.25, or 0.1 mM. Each treatment was performed in triplicate.
(§2) Colonies appearing on the plates on which mixtures of tk+ and tk− spores had been plated were sub-cultured to fresh plates of VNO3RLMT medium supplemented with 50 μM FdU (NO uridine). An equivalent number of samples were also sub-cultured from the background growth (3 colonies per mixed plate) to VNO3RLMT+50 μM FdU (No uridine). In addition, colonies and background growth were sub-cultured from pure tk− plates and pure tk+ plates to plates of VNO3RLMT+50 μM FdU (no uridine). […]

[3] = test system: Fusarium venenatum WTY842-1-11; experiment: Sensitivity testing of Fusarium venenatum WTY842-1-11 to FdU (plug growth on VNO3RLMT); conditions: 14 days
Description: For a thymidine kinase gene (tk) to be useful as a negatively selectable marker, a fungus must be […] to rather high concentrations of the nucleoside analog 5-fluoro-deoxyuridine (FdU). In order to ascertain the degree of sensitivity of Fusarium venenatum WTY842-1-11 to FdU, a one week old culture of Fusarium venenatum WTY842-1-11 was prepared by plating a colonized agar plug of the strain taken from a 10% glycerol stock, which had been stored at −140° C., onto a VNO3RLMT plate and incubating in a ChexAll Instant Seal Sterilization Pouch (Fisher Scientific, Pittsburgh, Pa., USA) for 7 days at 26-28° C. After 7 days plugs were cut sub-marginally from the one week old culture and placed face down on VNO3RLMT medium supplemented with different concentrations of FdU (0 to 500 μM) (Sigma Chemical Co., St. Louis, Mo., USA) in 6 well plates. The plates were incubated at 26-28° C. in open ZIPLOC® bags (S.C. Johnson Home Storage, Inc., Racine, Wis., USA) for 14 days, after which the extent of growth at each FdU concentration was recorded.

[4] = test system: Fusarium venenatum WTY1449-3-3 (tk+); experiment: Reconstruction experiment, growth on FdU-supplemented minimal media, tk+ strain; conditions: 50 μM FdU
Description: as §1, §2

[5] = test system: Fusarium venenatum EmY1154-46-4.3 (pyrG-deleted); experiment: Germination efficiency of spores of pyrG-deleted strain on uridine- and FdU-supplemented media
Description: Germination efficiency of spores from the pyrG-deleted Fusarium venenatum strain EmY1154-46-4.3 on uridine- and FdU-supplemented media was tested. Spores of Fusarium venenatum EmY1154-46-4.3 were generated as described in Example 5 using RA medium supplemented with 10 mM uridine. Fifty spores in a volume of 200 μl were aliquoted to each of 45 VNO3RLMT plates (14 cm diameter) supplemented with 0, 25, or 50 μM FdU and 0, 0.01, 0.05, 0.1, or 0.25 mM uridine. Triplicate plates of each combination of FdU and uridine were set up and incubated in ChexAll Instant Seal Sterilization Pouches at 26° C. for 10 days.

`O=c1[nH]c(=O)n([C@H]2C[C@H](O)[C@@H](CO)O2)cc1F` [FdU, 5-fluoro-deoxyuridine] was tested, and the growth ([1]; 50 μM FdU plus uridine 0.1-1 mM) was “extensive growth”, the growth ([1]; 50 μM FdU, without uridine) was “no growth” and the growth ([2]; all concentrations of uridine and medium lacking uridine) was “grew well”. The growth after sub-culture ([2]; uridine-deficient media) was “grew normally”, the “sensitivity (extent of growth) to FdU” value ([3]; FdU 0 to 500 μM, VNO3RLMT, 26-28° C.) was “insensitive” and the “FdU concentration at which growth was slightly reduced” value ([3]; compared to concentrations of 50 μM and below) was “greater than 100 μM”. The growth ([4]; uridine 0.1-1 mM plates) was “grew as a uniform haze”, the growth after sub-culture ([4]; uridine-deficient media) was “could absolutely not grow” and the spore germination frequency ([5]; 25 and 50 μM FdU, uridine 0.1 mM, 75% in the absence of FdU) was “approximately 50%”. For the same compound, the spore germination ([5]; 25 or 50 μM FdU, uridine 0.01 mM, 10 days, 26° C.) was “could not germinate”.
